Data set [1] deals with ischemia induced weight increase of the small intestine. As to the kind of experiment: inhibition of ischemia induced weight increase of a definite section in the small intestine of rats. Type of data set: in vivo. The settings on record: Rattus norvegicus, 25 mg/kg oral. On the procedure:
2. […] The percentage of inhibition observed after administration of a 25 mg/kg oral dose of the compounds of the invention or of the reference compounds is shown in Table 5.

Data set [2] relates to NADPH dependent lipid peroxidation. As to the kind of experiment: inhibition of the NADPH dependent lipid peroxidation. In kind it is biochemical. On the procedure: 3. Inhibiton of the NADPH dependent lipid peroxidation was measured according to T. J. Player and A. A. Horton [J. Neurochem. 37, 422 (1981)] and Z. Duniec [Biochem. Pharmacol. 32, 2283 (1983)]. The IC50 values (expressed in micromols) of some compounds of the invention, further those of the reference compounds determined in this test are given in Table 3.

The next data set concerns acute brain injury. Put plainly: inhibition of acute brain injury of mice (improvement in the neurological state). Type of data set: in vivo. The settings on record: intravenous. The text has this:
1. […] 68, 456 (1988)]. The doses of the test compounds administered by the intravenous route and the percentage of improvement in the neurological state are summarized in Table 4.

For a further data set, the system named is rats. As to the kind of experiment: acute toxicity in rats. Type of data set: in vivo. The settings on record: 1000 mg/kg oral.
A further data set can be described thus: acute toxicity in rats. In kind it is in vivo. The settings on record: rat, in vivo, oral.
The subject of data set [3] is rat brain homogenate (ferrous ion dependent lipid peroxidation). As to the kind of experiment: ferrous ion dependent lipid peroxidation inhibitory activity on rat brain homogenate (thiobarbituric acid reactive substances). The settings on record: Fe2+ dependent lipid peroxidation, TBARS. Type of data set: biochemical. As for the experimental part: 1. The ferrous ion dependent lipid peroxidation inhibitory activity was measured on rat brain homogenate by using the method descibed by J. M. Braughler et al., [J. Biol. Chem. 262, 10438 (1987)] and J. A. Buege and S. D. […] The IC50 value is defined as the concentration of a test substance which reduces by 50% the amount of the thiobarbituric acid reactive substances (chiefly malondialdehyde) considered to be a characteristic parameter of lipid peroxidation.

Data set [4] has as its system arachidonic acid (ferrous ion dependent peroxidation). Put plainly: inhibition of the ferrous ion dependent peroxidation of arachidonic acid. In kind it is biochemical. The settings on record: Fe2+ dependent peroxidation of arachidonic acid. On the procedure: 2. The inhibition of the ferrous ion dependent peroxidation of arachidonic acid was also measured by the method of J. M. Braughler et al. [J. Biol. Chem. 262, 10438 (1987)] and J. A. Buege and S. D. Aust [Methods in Enzymology 52, 302 (1978)]. The IC50 values (expressed in micromols) of some compounds of the invention, further those of the reference compounds determined in this test are shown in Table 2.

This note sets out measurements from patent publication US5380724A, “Piperazine and homopiperazine derivatives, pharmaceutical compositions containing them and process for preparing same” (Gyogyszerkutato Intezet KFT, priority 1992, dated 1995).

Structures are written as SMILES.

As for `OC(COc1ccc2ccccc2c1)CN1CCCN(c2cc(N3CCCC3)nc(N3CCCC3)n2)CC1` (stereo not shown) [Example 27], in data set [1], the inhibition in vivo (in general, the share of the control response that was lost under treatment) at 25 mg/kg is 60%. For the same molecule, the values for the IC50 in data set [2] and in data set [3] were 22 µM and 8 µM, respectively. Also, in the data set with acute brain injury (20 mg/kg), the “Improvement (in the neurological state)” value is given as 82%. The “death of treated animals” value with rats is “did not provoke death of any of the treated animals”. Also, the LD50 (as a rule, the dose expected to kill half of the subjects tested) in the data set “acute toxicity in rats” is greater than 1000 mg/kg.

`Nc1nc(N)c2nc(-c3ccc(OCC(O)CN4CCNCC4)cc3)c(N)nc2n1` (stereo not shown) [Example 50, 6-[4-[2-Hydroxy-3-(1-piperazinyl)propoxy]phenyl]-2,4,7-triamino-pteridine] showed an inhibition in vivo at 25 mg/kg in data set [1] of 78%. Further, the “Improvement (in the neurological state)” value in the data set on acute brain injury (20 mg/kg) is on record as 93%. Moreover, the “death of treated animals” value in the data set with rats is given as “did not provoke death of any of the treated animals”. The same molecule displayed an LD50 in the data set “acute toxicity in rats” greater than 1000 mg/kg. Half-maximal inhibition in data set [4] (IC50) was put at 15 µM.

`C=CCCCCCCCCC(=O)N1CCN(c2cc(N3CCCC3)nc(N3CCCC3)n2)CC1` [Example 1, 1-(10-Undecenoyl)-4-[2,6-di(1-pyrrolidinyl)-4-pyrimidinyl]piperazine]: the inhibition in vivo at 25 mg/kg in data set [1] was 55%. The “Improvement (in the neurological state)” value in the data set on acute brain injury (10 mg/kg) was 68%. Also, in the data set with rats, the “death of treated animals” value is given as “did not provoke death of any of the treated animals”. Besides, in “acute toxicity in rats”, the median lethal dose (LD50) is greater than 1000 mg/kg. In addition, the half-maximal inhibitory concentration (IC50) (commonly the point on the concentration scale where inhibition reaches its midpoint) in data set [3] was 30 µM.

`c1ccc(C(c2ccccc2)(c2ccccc2)N2CCN(c3cc(N4CCCC4)nc(N4CCCC4)n3)CC2)cc1` [Example 10] came in with an inhibition in vivo at 25 mg/kg in data set [1] of 56%. Further, the “death of treated animals” value in the data set with rats is “did not provoke death of any of the treated animals”. The molecule also returned an LD50 in “acute toxicity in rats” greater than 1000 mg/kg.
